Data set [1] has as its system primary cultures of rat hippocampal neurons. Format: cell-based. To be noted: for Minimum effective concentration for neuroprotective effects: hippocampal neurons chronically exposed to ethanol, cell viability and ROS production. From the text:
(§1) The neurotoxic effects of alcohol have been well documented, both in animals and humans, and the hippocampus represents a brain area particular sensitive to the detrimental effects of alcohol. Different preclinical models have been employed for studying the neurotoxic effects of alcohol. One of these models consists in exposing organotypic hippocampal cultures to alcohol, which exerts various effects, including a reduction in cell viability, and an increase in reactive oxygen species (ROS).
(§2) Briefly, primary cultures of rat hippocampal neurons were chronically exposed to ethanol (75 mM; 4 days) and the neuroprotective effects of ACGET61 were assessed by evaluating cell viability (MTT assay), and reactive oxygen species production (rhodamine 123 fluorescence).

Data set [2] shares this test system. Format: cell-based.
Description: as §1, §2
Ethanol exposure induced a significant increase in the ROS production (p<0.001), measured by the fluorescence emission of rhodamine 123.

The subject of data set [3] is Sardinian alcohol preferring (sP) rats. Briefly: Operant self-administration of alcohol, progressive ratio / break point (PR/BP). Format: in vivo, rat. To be noted: for Effective Doses mg/kg: PR/BP model, sP rats. From the text:
(§3) In these procedures sP rats were trained to self-administer alcohol or sucrose by pressing a lever, and the amount of work (lever pressing) requested to obtain alcohol, varied according with the aim of the single schedule of reinforcement, Fixed ratio (FR) or Progressive ratio (PR).
(§4) Sucrose solution (3% w/v) was systematically employed in these experiments as alternative reinforcer, in order to assess if test compounds exert a selective effect on the alcohol solution (15% v/v) self-administration.
(§5) In the FR the rat obtain alcohol or sucrose in response to four consecutive lever pressing (FR4), while in the PR the number of lever pressing necessary to obtain alcohol or sucrose increased progressively till the rat stop pressing the lever (Break point; BP). Each FR4 or PR/BP session lasted 30 minutes.

Data set [4] deals with hippocampal slices. As to the kind of experiment: Basal GABA and glutamate outflow in hippocampal slices. Type of data set: cell-based, rat. To be noted: 10 and 100 μM. The protocol:
(§6) Based on previous results obtained for GET 73, which influences the aminoacidergic neurotransmission in the rat hippocampus, probably through a complex modulation of the metabotropic glutamate receptors subtype 5 (mGluR5) (Beggiato et al., 2013; Ferraro et al., 2011, 2013) the positional isomer ACGET61 was evaluated in vitro in hippocampal slices, by measuring GABA and glutamate levels in different experimental conditions.

Data set [5] relates to Sardinian alcohol preferring (sP) rats. As to the kind of experiment: Operant self-administration of alcohol, fixed ratio FR4. Format: in vivo, rat.
Description: as §3, §4, §5

In data set [6] the target is T1, mGluR5 (Rattus norvegicus, UniProt P31424).
T1 construct: from tissue; host or cells: hippocampal slices
As to the kind of experiment: Increase in K+-evoked glutamate outflow induced by the mGluR5 receptor agonist CHPG in hippocampal slices. Type of data set: cell-based. To be noted: CHPG 100 μM. The protocol: as §6
The interaction of ACGET61 with the mGluR5 agonist CHPG was explored in KCl stimulated hippocampal slices. […] Specifically, FIG. 5—KCl stimulated Hippocampal slices—K^+ evoked glutamate outflow. The effect of ACGET61 300 pM on the increase in glutamate outflow induced by CHPG 100 μM. ** p<0.01 vs Control; ^∘ p<0.05 vs ACGET61+CHPG.

In data set [7] the test system is hippocampal slices. As to the kind of experiment: K+-evoked GABA and glutamate outflow in KCl stimulated hippocampal slices. Format: cell-based, rat. As to the method:
as §6
Additional studies aimed at exploring the effect of ACGET61 (10 pM-10 μM) in KCl stimulated hippocampal slices were carried out.

Data set [8] relates to Sardinian alcohol preferring (sP) rats. Briefly: Maintenance of alcohol intake, 2-bottle free choice regimen between alcohol (10% v/v) and water. Format: in vivo, rat. To be noted: acute oral administration. From the text:
Anti-alcohol profile of ACGET61 in Sardinian alcohol preferring (sP) rats Sardinian alcohol preferring (sP) rats represents one of the few rat lines selectively bred worldwide for high ethanol preference and consumption (Colombo et al., 2006) and are utilized in multiple experimental procedures validated for the evaluation of different aspects of alcohol drinking. These experimental procedures include Maintenance of alcohol intake, and Operant self-administration of alcohol.
In this procedure sP rats were exposed to a 2-bottle free choice regimen between alcohol (10% v/v) and water. Under this condition, the animals can choose between a bottle containing the alcohol solution and a bottle containing water, and voluntarily consume about 6 g/kg/day of alcohol, with a preference for alcohol of about 90%.

For data set [9], the target named is T1, mGluR5. To be noted: GET73, same model; cited from earlier work.
Data set [10] deals with Sardinian alcohol preferring (sP) rats. To be noted: 2-bottle free choice model; cited from earlier work.
For data set [11] the following is noted: cited from earlier work.
[12] abbreviates: 0.01-10 μM, cultures not exposed to ethanol.
[13] abbreviates: FR4 model, sP rats, GET 73 tested up to 50.

The structures appear in SMILES notation. Read-outs that look alike come from different tables or passages of the source. Marks after values point to notes of the source that are not given here.

T1 sequence (P31424 21-1203): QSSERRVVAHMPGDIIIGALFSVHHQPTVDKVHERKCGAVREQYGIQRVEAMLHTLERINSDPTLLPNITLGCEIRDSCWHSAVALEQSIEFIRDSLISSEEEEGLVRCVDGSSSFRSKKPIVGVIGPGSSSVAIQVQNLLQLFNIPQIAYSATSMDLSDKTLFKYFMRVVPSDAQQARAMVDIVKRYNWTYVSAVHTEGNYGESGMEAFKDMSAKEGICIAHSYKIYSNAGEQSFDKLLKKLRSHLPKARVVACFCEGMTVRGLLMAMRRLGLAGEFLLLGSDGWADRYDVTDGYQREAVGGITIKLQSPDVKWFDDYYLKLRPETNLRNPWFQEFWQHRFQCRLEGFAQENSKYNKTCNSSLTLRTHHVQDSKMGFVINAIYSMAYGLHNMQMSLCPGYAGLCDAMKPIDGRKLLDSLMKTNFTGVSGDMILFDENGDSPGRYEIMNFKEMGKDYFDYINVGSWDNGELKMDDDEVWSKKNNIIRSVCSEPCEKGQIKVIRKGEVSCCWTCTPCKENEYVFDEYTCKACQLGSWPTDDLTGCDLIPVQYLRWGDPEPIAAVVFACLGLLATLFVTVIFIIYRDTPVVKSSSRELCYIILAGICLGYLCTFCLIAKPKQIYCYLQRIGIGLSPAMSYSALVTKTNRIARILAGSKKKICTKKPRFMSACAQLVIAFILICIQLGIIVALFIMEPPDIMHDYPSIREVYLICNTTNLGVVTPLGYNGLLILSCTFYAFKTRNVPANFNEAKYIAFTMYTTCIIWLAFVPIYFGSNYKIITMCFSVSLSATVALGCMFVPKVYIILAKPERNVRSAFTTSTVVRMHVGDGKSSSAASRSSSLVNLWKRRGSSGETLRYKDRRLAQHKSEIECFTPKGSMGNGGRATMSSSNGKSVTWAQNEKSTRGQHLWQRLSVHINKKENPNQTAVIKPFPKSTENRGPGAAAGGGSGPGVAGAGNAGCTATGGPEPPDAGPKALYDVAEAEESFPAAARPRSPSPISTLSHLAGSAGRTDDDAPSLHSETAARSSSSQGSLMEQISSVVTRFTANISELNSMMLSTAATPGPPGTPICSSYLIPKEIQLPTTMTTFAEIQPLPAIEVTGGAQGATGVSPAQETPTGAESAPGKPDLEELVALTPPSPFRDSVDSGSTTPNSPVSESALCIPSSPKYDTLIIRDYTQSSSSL

With `COCCCC(=O)NCc1ccccc1C(F)(F)F` [ACGET61, N-[(2-trifluoromethyl)benzyl]-4-methoxybutyramide], the “Cellular viability, compound by itself” value in [1] (setting [12]) is “did not affect cellular viability”. Besides, the “Cell viability in ethanol exposed cultures” value in data set [1] (0.1, 1, and 10 μM added 1 hour before and during ethanol 75 mM, 4 days, p<0.05 vs ethanol) is “prevented the ethanol-induced damage”. For the same compound, the “Minimum effective concentration for neuroprotective effects” value in [1] came to 0.1 µM. Besides, the “ROS production, compound by itself” value in [2] (setting [12]) is given as “did not affect ROS production”. In data set [2] (0.1, 1, and 10 μM added 1 h before and during ethanol 75 mM, 4 days), the “ROS production in ethanol exposed cultures” value is “prevented the ethanol-induced increase of ROS production”. The “Number of lever pressing and break point for alcohol” value in data set [3] (50 and 100 mg/kg, PR, 30 min session) is “reduced”. Moreover, the Response for sucrose result in data set [3] (50 and 100 mg/kg, PR, sucrose 3% w/v) is on record as “able to reduce also the response for sucrose”. Besides, in [3] (for alcohol and sucrose), the “Effective Doses mg/kg” value was 50-100 * mg/kg. Moreover, the “Effect on basal release of GABA and glutamate” value in the data set on hippocampal slices [4] is “No effects”. Besides, in data set [5] (100 mg/kg, 30 min session, p<0.05 vs vehicle), the “Effect on FR4 operant self-administration of alcohol (lever responses, alcohol and sucrose intake)” value was “selective reducing effect on the reinforcing properties of alcohol”. Besides, in [5] (setting [13]), the “Effective Doses” value is reported as 100 mg/kg. Also, the “Effect on the increase in K+-evoked glutamate outflow exerted by CHPG” value on mGluR5 [6] (ACGET61 300 pM) is “able to counteract, at least in part”. Also, the “Concentration inhibiting CHPG-induced increase of glutamate in hippocampal slices” value at mGluR5 [6] (KCl stimulated slices) is recorded as 300 pM. For the same compound, the “K+-evoked glutamate outflow” value in the data set on hippocampal slices [7] (100, 300, and 500 pM) is on record as “modest non significant reduction”. In addition, the “Effect on K+-evoked GABA and glutamate outflow” value in the data set with hippocampal slices [7] (concentrations between 10 nM and 10 μM) is “did not exert overt effects”. The “K+-evoked GABA outflow” value in the data set with hippocampal slices [7] (highest concentration (10 μM)) is given as “significant decrease”. For the same compound, the Duration of effect in data set [8] (ACGET61, Maintenance model, sP rats) came out at 24 h. For the same compound, the “Effect on water and food intake” value in data set [8] (25 to 100 mg/kg) was “without affecting water and food intake”.
Consider `COCCCC(=O)NCc1ccc(C(F)(F)F)cc1` [GET 73, 4-methoxy-N-[[4-(trifluoromethyl)phenyl]methyl]-butanamide, reference compound], for which the “Minimum effective concentration for neuroprotective effects” value in data set [1] stood at 1 µM. Also, the “Effect on PR operant self-administration of alcohol” value in data set [3] (GET73, same model) is recorded as “did not demonstrate any effects”. Further, in data set [3] (PR, 50 mg/kg), the Sucrose intake entry is listed as “significant reduction”. Moreover, the “Effective Doses mg/kg” value in data set [3] (limited to sucrose) is reported as 50 # mg/kg; in [5] (setting [13]) it was “No effect”. Also, in data set [5] (GET73, same model), the “Effect in FR4 operant self-administration” value is “did not demonstrate any effects”. Besides, the “Concentration inhibiting CHPG-induced increase of glutamate in hippocampal slices” value on mGluR5 [9] was 500 nM.
Consider `O=C(O)CCCO` [GHB, gamma-hydroxybutyric acid], for which the “Alcohol intake of sP rats” value in data set [10] was “reduced”.
Turning to `NCC(CC(=O)O)c1ccc(Cl)cc1` (stereo not shown) [baclofen], in data set [10], the “Alcohol intake of sP rats” value is on record as “reduced”.
Consider `O=C1CC[C@@]2(O)[C@H]3Cc4ccc(O)c5c4[C@@]2(CCN3CC2CC2)[C@H]1O5` [naltrexone], for which the “Alcohol intake of sP rats” value in data set [10] was “reduced”.
Consider `O=C(O)CCCO` [sodium oxybate], for which the “Time to peak plasma concentration” value in data set [11] (after oral administration) is 30 to 45 min. Further, in data set [11] (in vivo), the Bioavailability entry is on record as “about 30%” and the Half-life entry is listed as “about 30 minutes”.

(Values after patent US10336687B2, “Selected amide of Y-hydroxybutyric acid and uses thereof in the treatment of alcohol misuse” (priority 2015, dated 2019).)
